This passage reports TGI and GI50 results from PubChem BioAssay (NCI).

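48-hour exposure; five concentrations; linearly interpolated endpoints. GI50 = concentration required for 50% inhibition of growth. TGI marks complete inhibition of growth.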

Common to all, as to assay: NCI anticancer screen, dose series, 48 h
For test [1], the system named is TK-10 renal.
The subject of test [2] is HCT-15 colon.
Test [3] concerns KM12 colon.
Test [4] has as its system SK-OV-3 ovarian.
The subject of test [5] is OVCAR-3 ovarian.
Test [6] deals with CCRF-CEM leukemia.
For test [7], the system named is EKVX NSCLC.
In test [8] the test system is HOP-92 NSCLC.

With `CC(=O)OCC1OC(n2c(=O)n(-c3ccccc3)c(=O)c3cc(Br)cc(Br)c32)C(OC(C)=O)C(OC(C)=O)C1OC(C)=O` (stereo unspecified), the TGI in test [1], in test [2], in test [3], in test [4], in test [5] and in test [6] was greater than 100 µM each time. Also, the TGI in test [7] and in test [8] was greater than 100 µM throughout.

Turning to `CCOC(=O)[C@H]1Nc2ccc(Cl)cc2[C@H]2OCC[C@@H]12`, the TGI in test [1], in test [2], in test [3], in test [4], in test [5] and in test [6] was greater than 100 µM each time. The TGI in test [7] is greater than 100 µM.

For the compound `COc1ccc2nc(NC(=O)C(=O)C(C(=O)c3ccccc3-c3ccccc3)C3OC(=O)c4ccccc43)sc2c1` (stereo unspecified), the TGI in test [1] is 48.9 µM; in test [3] it was 54.9 µM; in test [4], 88 µM; in test [5], 48.2 µM; in test [6], greater than 100 µM; in test [7], 45.9 µM. Moreover, the TGI in test [8] came out at 35.2 µM.

As to `COc1cc([C@@H]2c3cc4c(cc3[C@@H](NCc3ccccc3)C3COC(=O)[C@@H]32)OCO4)cc(OC)c1O` (stereo partly specified), the TGI in test [1] was greater than 61.7 µM; in test [2] it was 33.5 µM; in test [3], 49.3 µM; in test [4], greater than 58.9 µM; in test [5] it was 42.5 µM; in test [6], greater than 27.2 µM. In addition, the TGI was 38.1 µM in test [7] and 37.9 µM in test [8].

Regarding `CCC[CH2][Sn]([CH2]CCC)([O]C(=O)c1cc(OC)c(OC)cc1OC)[O]C(=O)c1cc(OC)c(OC)cc1OC`, the GI50 in test [1] was 1.5 µM; in test [2], 1.26 µM; in test [3], 1.75 µM; in test [4] it was 2.14 µM; in test [5] it was 1.3 µM; in test [6], 0.295 µM. Besides, the GI50 in test [7] was 1.64 µM. The TGI in test [1] was found to be 2.84 µM; in test [2] it was 2.92 µM; in test [3], 4.07 µM; in test [4], 5.51 µM; in test [5] it was 2.86 µM; in test [6] it was 1.11 µM. The compound also registered a TGI in test [7] of 4.83 µM.

Turning to `Cc1ccccc1-c1c(N)nc(N)nc1C(=O)Nc1nccs1`, the TGI in test [1], in test [2], in test [3], in test [4], in test [5] and in test [6] was greater than 100 µM each time. Also, the TGI in test [7] and in test [8] was greater than 100 µM in each case.

For the compound `CCC[CH2][Ge]([CH2]CCC)([CH2]CCC)[O]C(=O)C(O)c1ccccc1` (stereo unspecified), the GI50 in test [1] is 18 µM; in test [2], 1.78 µM; in test [3], 2.96 µM; in test [4], 9.27 µM; in test [5], 1.35 µM; in test [6], 0.207 µM. The results for the GI50 in test [7] and in test [8] were 0.309 µM and 0.49 µM, respectively. For the same compound, the TGI was greater than 100 µM in test [1]; 14.2 µM in test [2]; 17.4 µM in test [3]; 35.6 µM in test [4]; 18.4 µM in test [5]; 25.7 µM in test [6]. Further, the TGI in test [7] came to 15 µM; in test [8], 15.8 µM.

For the compound `Cc1ccc(NC(=O)CC/C(CC(=O)c2ccc(F)cc2)=N\NC(=O)C(=O)NN)cc1C`, the TGI in test [1], in test [2], in test [3], in test [4], in test [5] and in test [6] was greater than 100 µM in each case. The TGI in test [7] and in test [8] was greater than 100 µM in each case.

As for `Cc1ccc(S(=O)(=O)SCc2ccccc2CSS(=O)(=O)c2ccc(C)cc2)cc1`, the TGI in test [1] was greater than 100 µM; in test [2], 48.6 µM; in test [3] it was greater than 100 µM; in test [4] it was greater than 100 µM; in test [5], 43.7 µM; in test [7], greater than 100 µM. The compound further displayed a TGI in test [8] of 51.7 µM.

For `CC(=O)Nc1ccccc1-c1cnc2ccccc2n1`, the TGI in test [1], in test [2], in test [3], in test [4], in test [5] and in test [6] was greater than 100 µM in each case. Moreover, the TGI in test [7] and in test [8] was greater than 100 µM throughout.

Take `Nc1ccc2c(c1)CC1c3ccccc3C(C2)c2ccccc21`: the TGI in test [1], in test [2], in test [3], in test [4], in test [6] and in test [8] was greater than 100 µM in each case.

With `Cc1ccccc1NC(=O)C1C(=O)N(c2ccccc2C)C(=O)/C1=N\N` (stereo unspecified), the TGI in test [2], in test [3], in test [4], in test [5], in test [6] and in test [7] was greater than 100 µM throughout. The compound also yielded a TGI in test [8] greater than 100 µM.

For `CC(=O)OC1C/C(C)=C/CCC(C)/C=C/C2(C)CCC(C(C)(C)O)C12` (stereo unspecified), the TGI in test [1], in test [2], in test [3], in test [4], in test [5] and in test [6] was greater than 100 µM throughout. Further, the TGI was greater than 100 µM in test [7] and 51.4 µM in test [8].

Turning to `CCC1(C(=O)OC)CCc2c(OC)ccc(OC)c2C1=O` (stereo unspecified), the TGI in test [1], in test [2], in test [3], in test [4], in test [5] and in test [6] was greater than 100 µM each time. In addition, the TGI in test [7] was greater than 100 µM.

As to `CN(C)CC/C(=N\Nc1ccc(Cl)c(Cl)c1)c1ccccc1`, the TGI in test [1] worked out at 3.68 µM; in test [2], 4.18 µM; in test [3], 3.92 µM; in test [4], 14.1 µM; in test [5] it was 6.45 µM; in test [6], 6.18 µM. The compound also yielded a TGI in test [7] of 3.93 µM.
